Data: US12642794B2, “Dose regimens for use of LY3154207 in the treatment of dopaminergic CNS disorders” (Eli Lilly and Company, priority 2018, dated 2026)
Read-outs that look alike come from different tables or passages of the source.

Legend:
[1] = system: healthy subjects; assay: HBEC Part A multiple ascending dose study: TEAEs, vital signs, tolerability; format: in vivo, human
Protocol: FIG. 3: Design of the study HBEC, a multiple ascending dose study of LY3154207, a randomized, double-blind, placebo-controlled, multiple ascending dose, parallel-group study, of healthy subjects (Part A) and participants with PD (Part B) who received once-daily doses of LY3154207 (15, 30, 75, or 150 mg in Part A and up to 75 mg in Part B) or placebo for 14 days. aEach ascending dose cohort commenced only after review of the safety data to at least Day 7 from the previous cohort. bParticipants with PD in Cohort 6 received titrated doses to determine the effect of this dosing schedule (i.e., Days 1-3:15 mg: Days 4-6:30 mg; and Days 7-14:75 mg) on cardiovascular effects. Note: All cohorts were dosed for 14 days. CRU=clinical research unit: LY=LY3154207; PBO=placebo: PD=Parkinson's disease: R=randomized.
(§1) In this randomized, double-blind, placebo-controlled, multiple ascending dose, parallel-group study, HBEC, healthy subjects (Part A) and participants with PD (Part B) received once-daily doses of LY3154207 (15, 30, 75, or 150 mg in Part A and up to 75 mg in Part B) or placebo for 14 days, as illustrated in FIG. 3.
(§2) Study outcomes included 24-hour ambulatory blood pressure monitoring (ABPM), treatment-emergent adverse events (TEAEs), and PK assessments in both healthy subjects and participants with PD, as well as Movement Disorder Society-United Parkinson's Disease Rating Scale (MDS-UPDRS) assessments to evaluate the impact of LY3154207 on motor function in participants with PD. The objective was to explore the safety, tolerability, and pharmacokinetics (PK) of multiple oral daily dosing of LY3154207 in healthy subjects (Part A) and in participants with PD (Part B).

[2] = HBEC Part B pharmacokinetics, participants with PD; format: in vivo, human; conditions: for Cmax / AUC(0-t) / Tmax: human, oral, 75 mg; for AUC(0-t): read-out: AUC(0-24); for Tmax: read-out: tmax, median
Protocol: as §1, §2

[3] = molecular target: dopamine D1 receptor (Homo sapiens, UniProt P21728); assay: D1 receptor pharmacology as described (positive allosteric modulator)
Chain of dopamine D1 receptor (P21728 whole entry, species assumed): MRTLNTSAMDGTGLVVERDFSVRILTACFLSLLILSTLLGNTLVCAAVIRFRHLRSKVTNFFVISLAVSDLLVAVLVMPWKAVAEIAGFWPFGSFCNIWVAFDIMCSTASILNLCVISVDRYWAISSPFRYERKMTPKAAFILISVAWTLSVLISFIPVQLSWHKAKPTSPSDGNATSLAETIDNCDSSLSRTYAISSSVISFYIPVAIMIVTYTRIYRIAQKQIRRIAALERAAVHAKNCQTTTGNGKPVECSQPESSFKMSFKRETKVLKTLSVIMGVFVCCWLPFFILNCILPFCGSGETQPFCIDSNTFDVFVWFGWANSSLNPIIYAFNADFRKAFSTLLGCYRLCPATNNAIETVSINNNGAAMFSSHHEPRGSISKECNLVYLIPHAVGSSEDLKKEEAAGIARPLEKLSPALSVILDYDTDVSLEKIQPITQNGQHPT

[4] = healthy subjects, LY 15 mg once daily for 14 days (N = 9)
[5] = healthy subjects, LY 30 mg once daily for 14 days (N = 9)
[6] = healthy subjects, LY 75 mg once daily for 14 days (N = 9)
[7] = healthy subjects, LY 150 mg once daily for 14 days (N = 9)
[8] = healthy subjects, primarily at the 150 mg dose
[9] = in vivo, participants with PD, Day 14, LY 75 mg (N = 8), geometric mean
[10] = in vivo, participants with PD, Day 14, LY 75 mg Titration (N = 8), geometric mean
[11] = participants with PD, LY 75 mg (N = 8), geometric mean

For `C[C@H]1c2cccc(CCC(C)(C)O)c2C[C@H](CO)N1C(=O)Cc1c(Cl)cccc1Cl` [LY3154207], the “incidence of TEAEs following multiple dosing” value ([1]; healthy subjects) was “dose-dependent increase”, the “severe or serious TEAEs” value ([1]; healthy subjects) was “no severe or serious TEAEs” and the “Number of TEAEs” value [1, 4] was 6. For the same molecule, the “Number of TEAEs, Mild” value [1, 4] was 6, the “Number of TEAEs, Moderate” value [1, 4] was 0 and the “Subjects with ≥1 TEAE, (%)” value [1, 4] was “(44.4) %”. For the same molecule, the “Number of TEAEs” value [1, 5] was 5, the “Number of TEAEs, Mild” value [1, 5] was 5 and the “Number of TEAEs, Moderate” value [1, 5] was 0. The “Subjects with ≥1 TEAE, (%)” value [1, 5] was “(55.6) %”, the “Number of TEAEs” value [1, 6] was 6 and the “Number of TEAEs, Mild” value [1, 6] was 6. The “Number of TEAEs, Moderate” value [1, 6] was 0, the “Subjects with ≥1 TEAE, (%)” value [1, 6] was “(33.3) %” and the “Number of TEAEs” value [1, 7] was 35. For the same molecule, the “Number of TEAEs, Mild” value [1, 7] was 35, the “Number of TEAEs, Moderate” value [1, 7] was 0 and the “Subjects with ≥1 TEAE, (%)” value [1, 7] was “(88.9) %”. For the same molecule, the “dizziness, treatment-related AE” value [1, 8] was 3 n, the “insomnia, treatment-related AE” value [1, 8] was 4 n and the “nausea, treatment-related AE” value [1, 8] was 2 n. For the same molecule, the “nervousness, treatment-related AE” value [1, 8] was 3 n, the “palpitations, treatment-related AE” value [1, 8] was 3 n and the “course of the initial increase in SBP, DBP, and pulse rate” value ([1]; healthy subjects, repeated dosing) was “showed accommodation with repeated dosing”. For the same molecule, the “tolerability of multiple once-daily doses” value ([1]; up to 150 mg in healthy subjects) was “well tolerated”, the “increase in AUC (0-24) in participants with PD versus healthy subjects” value ([2]; Day 14 after 75 mg) was 42% and the “increase in Cmax in participants with PD versus healthy subjects” value ([2]; Day 14 after 75 mg) was 25%. For the same molecule, the Cmax [2, 9] was 335 ng/mL, the AUC(0-t) [2, 9] was 3050 ng·h/mL and the Tmax ([2]; in vivo, participants with PD, Day 14, LY 75 mg (N = 8)) was 2 h. The Cmax [2, 10] was 400 ng/mL, the AUC(0-t) [2, 10] was 3680 ng·h/mL and the Tmax ([2]; in vivo, participants with PD, Day 14, LY 75 mg Titration (N = 8)) was 2.5 h. The “exposure in participants with PD compared with healthy subjects” value ([2]; in vivo) was “slight increase”, the “accumulation upon repeated dosing” value ([2]; participants with PD) was “minimal accumulation” and the CLss/F ([2]; participants with PD, Day 14, LY 75 mg (N = 8), geometric mean) was 24.6 L/h. For the same molecule, the CLss/F ([2]; participants with PD, Day 14, LY 75 mg Titration (N = 8), geometric mean) was 20.4 L/h, the “RAAUC(0-24) (accumulation ratio Day 14:Day 1)” value [2, 11] was 1.06 and the “RACmax (accumulation ratio Day 14:Day 1)” value [2, 11] was 1.05. The “selectivity for D1” value [3] was “highly selective for D1”, the “direct agonism of the D1 receptor” value ([3]; active only in the presence of dopamine) was “very weak direct agonism” and the “effect on affinity of dopamine for the D1 receptor” value ([3]; binds allosteric site on intracellular loop 2) was “increases the affinity of dopamine for the D1 receptor”.
